From PMC9841524, “Structure-Based Rational Design of Small α-Helical Peptides with Broad-Spectrum Activity against Multidrug-Resistant Pathogens” (Journal of Medicinal Chemistry, 2022)
Like-named read-outs stand apart in the source and are kept apart here. Where no end group is shown, it is not given here.

How the values were obtained:
[1] = system: P. aeruginosa (ATCC 27883); assay: MIC, standard microtiter dilution (CLSI); type: cell-based, Pseudomonas aeruginosa; conditions: broth microdilution (CLSI), CAMHB, 37 °C, 24 h
Outline: (§1)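 Inoculum 10^6 CFU/mL in CAMHB against 2-fold peptide series; salt variants used 150 mM NaCl, 4.5 mM KCl, 6 mM NH4Cl, 1 mM MgCl2, 2 mM CaCl2, or 25% FBS.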

[2] = Relative hydrophobicity as RP-HPLC retention time; type: physicochemical; conditions: chromatographic, Phenomenex Luna C18 4 μm 150 × 4.6 mm, linear AB gradient 1% acetonitrile/min, 0.3 mL/min, A water 0.1% TFA, B acetonitrile 0.1% TFA, 25 °C
Procedure: The purity analysis of the peptides was conducted on a RP-HPLC system (Shimadzu; LC-20ADXR) by using a Phenomenex (Luna) analytical C18 column (4 μm, 150 × 4.6 mm). The mass of the purified peptides was determined in the positive-ion mode using Q-TOF LC/MS (Compass Hystar 4.1, Bruker, USA). The purity (>95%) and mass data of all the synthesized peptides are provided in the Supporting Information.
8. Comparative Hydrophobicity analysis
The purity of all synthesized peptides was determined using reverse phase analytical HPLC
(Shimadzu; LC-20ADXR). Below mentioned are the conditions used to conduct the purity
Column: Phenomenex (Luna), 4 um, C18, 150 × 4.6 mm
Mobile Phase: Buffer A-Water containing 0.1% TFA,
Buffer B-Acetonitrile containing 0.1% TFA
Figure S52. HPLC chromatogram of 6a.
(1 picture or pasted object on this page, not shown here)

S. aureus (ATCC 29213) = assay: MIC, standard microtiter dilution (CLSI); type: cell-based; conditions: for MIC, S. aureus (ATCC 29213): broth microdilution (CLSI), CAMHB, 37 °C, 24 h
Outline: as §1

[3] = CD spectroscopy, helicity; type: physicochemical; design: key to Δ[θ]222 induced by TFE / Δ[θ]222 induced by Liposomes: mean residue molar ellipticity, mdeg cm2/(dmol × res); conditions: for [θ]222 mean residue molar ellipticity, TFE / [θ]222 mean residue molar ellipticity, Liposomes / [θ]222 mean residue molar ellipticity, PBS: CD at 222 nm, 25 °C; for [θ]222 mean residue molar ellipticity, TFE: aqueous buffer containing 50% TFE; for [θ]222 mean residue molar ellipticity, Liposomes / Δ[θ]222 induced by Liposomes: bacterial membrane mimicking liposomes; for [θ]222 mean residue molar ellipticity, Liposomes: peptide:lipid molar ratio 1:1.05; for [θ]222 mean residue molar ellipticity, PBS: phosphate buffer saline pH 7.0; for Δ[θ]222 induced by TFE / Δ[θ]222 induced by Liposomes: difference to PBS; for Δ[θ]222 induced by TFE: 50% TFE; for % of helicity induced by TFE: increase in molar ellipticity at 222 nm in the presence of 50% TFE; for % of helicity induced by Liposomes: increase in molar ellipticity at 222 nm in the presence of liposomes;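 as to % of helicity induced by Liposomes: share of the total helicity with liposomes gained over the same peptide in PBS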;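 as to % of helicity induced by TFE: share of the total helicity in TFE gained over the same peptide in PBS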
Procedure: The CD spectra of peptides were recorded using a Jasco J-1500 CD spectrophotometer (Jasco, Easton, MD) at 25 °C with a 1 mm path length cell. Wavelengths from 190 to 260 nm were scanned with 1.0 nm step resolution, 100 nm/min speed, 0.4 s response time, and 1 nm bandwidth. CD spectra of the peptides were collected and averaged over three scans in 10 mM sodium phosphate buffer (pH 7.2), helix-inducing solvent 50% TFE (v/v), and bacterial mimic liposomes (75 μM lipid). Spectra were corrected by subtracting a baseline spectrum containing only buffer or 50% TFE or liposomes. The mean residue molar ellipticity was calculated using the formula [drawing 3] where Ab222 is the absorbance observed at 222 nm, MRW is the mean residue molecular weight, C is the concentration in mg/mL, and L is the path length.
Table S1. RP-HPLC retention times and CD spectroscopy analysis of the selected peptides Peptide tR (min)a [θ]222b Δ[θ]222 induced by % of helicity inducedc by PBS TFE Liposomes TFE Liposomes TFE Liposomes […]
atR (min) denotes the retention time at 25°C by RP-HPLC. bThe mean residue molar ellipticity [θ] 222 (mdeg cm2/(dmol × res)) at 222 nm was measured at 25 °C in phosphate buffer saline (PBS, pH 7.0), in aqueous buﬀer containing 50% TFE (TFE), or in presence of bacterial membrane mimicking liposomes (peptide:lipid […]
c% helix induced is the increase in the molar ellipticity at 222 nm (in percentage) of a peptide in the presence of TFE or liposomes.

MRSA (ATCC BAA-1556) = conditions: broth microdilution (CLSI), CAMHB, 37 °C, 24 h
Outline: as §1

E. coli (ATCC 25922) = conditions: broth microdilution (CLSI), CAMHB, 37 °C, 24 h
Outline: as §1

[4] = system: human red blood cells (hRBCs); assay: Hemolytic assay; type: cell-based; conditions: 2 h, 37 °C
Outline: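 Peptides in 2-fold serial dilutions mixed 1:1 with 4% hRBC suspension in PBS and held 2 h at 37 °C unshaken. Hemoglobin release in supernatant read at 567 nm; % hemolysis scaled between PBS (0%) and 1% Triton X-100 (100%).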

[5] = system: K. pneumoniae (ATCCBAA-1705); assay: MIC, standard microtiter dilution (CLSI); type: cell-based, Klebsiella pneumoniae; conditions: broth microdilution (CLSI), CAMHB, 37 °C, 24 h
Outline: as §1

[6] = 10^6 CFU/mL, highest MIC of three independent experiments in triplicate
[7] = hRBC suspension 4% in PBS, hemoglobin release at 567 nm, 1% Triton X-100 = 100%
[8] = value in parentheses (μM), hRBC 4% in PBS, 567 nm

| Substance | MIC, P. aeruginosa (ATCC 27883) [1, 6] [µg/mL] | MIC, P. aeruginosa (ATCC 27883) ([1]; value in parentheses (μM)) [µM] | tR, RP-HPLC retention time (measure of overall hydrophobicity) [2] [min] | MIC, S. aureus (ATCC 29213) (S. aureus (ATCC 29213); [6]) [µg/mL] | MIC, S. aureus (ATCC 29213) (S. aureus (ATCC 29213); value in parentheses (μM)) [µM] | [θ]222 mean residue molar ellipticity, TFE [3] | [θ]222 mean residue molar ellipticity, Liposomes [3] | [θ]222 mean residue molar ellipticity, PBS [3] | Δ[θ]222 induced by TFE [3] | Δ[θ]222 induced by Liposomes [3] | % of helicity induced by TFE [3] [%] | % of helicity induced by Liposomes [3] [%] | MIC, MRSA (ATCC BAA-1556) (MRSA (ATCC BAA-1556); [6]) [µg/mL] | MIC, MRSA (ATCC BAA-1556) (MRSA (ATCC BAA-1556); value in parentheses (μM)) [µM] | MIC, E. coli (ATCC 25922) (E. coli (ATCC 25922); [6]) [µg/mL] | MIC, E. coli (ATCC 25922) (E. coli (ATCC 25922); value in parentheses (μM)) [µM] | HC50 (concentration at which 50% hemolysis was observed) [4, 7] [µg/mL] | HC50 (concentration at which 50% hemolysis was observed) [4, 8] [µM] | MIC, K. pneumoniae (ATCCBAA-1705) [5, 6] [µg/mL] | MIC, K. pneumoniae (ATCCBAA-1705) ([5]; value in parentheses (μM)) [µM] | also measured |
| --- | --- | --- | --- | --- | --- | --- | --- | --- | --- | --- | --- | --- | --- | --- | --- | --- | --- | --- | --- | --- | --- |
| KWAKKWAKWWKK-NH2 [6b] | > 100 | > 59.77 | 28.98 | 100 | 59.77 | -14689 mdeg cm2/(dmol × res) | -20391 mdeg cm2/(dmol × res) | -7476 mdeg cm2/(dmol × res) | -7212 | -12915 | 49.10 | 63.33 | 100 | 59.77 | > 100 | > 59.77 | > 500 | > 298.85 | > 100 | > 59.77 |  |
| KWAKKWWKWWKK-NH2 [6e] | 25 | 13.98 | 29.87 | 12.5 | 6.99 | -18419 mdeg cm2/(dmol × res) | -13181 mdeg cm2/(dmol × res) | -7968 mdeg cm2/(dmol × res) | -10451 | -5213 | 56.74 | 39.55 | 12.5 | 6.99 | 25 | 13.98 | 360 | 201.32 | 50 | 27.96 |  |
| KWLKKWWKWWKK-NH2 [8e] | 12.5 | 6.83 | 34.10 | 12.5 | 6.83 | -11148 mdeg cm2/(dmol × res) | -15042 mdeg cm2/(dmol × res) | -5411 mdeg cm2/(dmol × res) | -5736 | -9630 | 51.45 | 64.02 | 12.5 | 6.83 | 12.5 | 6.83 | 240 | 131.13 | 25 | 13.66 |  |
| RWARRWARWWRR-NH2 [6a] | 100 | 54.31 | 30.42 | 50 | 27.16 | -13346 mdeg cm2/(dmol × res) | -13245 mdeg cm2/(dmol × res) | -6737 mdeg cm2/(dmol × res) | -6608 | -6508 | 49.51 | 49.13 | 50 | 27.16 | > 100 | > 54.31 | 230 | 124.92 | > 100 | > 54.31 | MIC against S. aureus (S. aureus (ATCC 29213)): 50 µg/mL; increase in helicity in the presence of liposomes, as compared to PBS ([3]; CD): about 50% |
